Read-outs that look alike come from different tables or passages of the source.
Experiments:
[1] = tested on: phospho-ERK in MIA PaCa2 or H358 cells; assay: Phospho-ERK assay (AlphaLisa); format: cell-based
SHP2 (full length) = target: T1, SHP2 (full length) (Homo sapiens, UniProt Q06124); assay: Phosphatase assay (PTPase assay) with DiFMUP substrate; format: biochemical; settings: SHP2 activated with SHP2 activating peptide, DiFMUP 80 μM, 2 hours, fluorescence
T1 construct: SHP2 (full length, diluted to 100 pM final concentration in reaction buffer, BPS bioscience, US); purchased BPS bioscience, US
T1 sequence (Q06124 1-593): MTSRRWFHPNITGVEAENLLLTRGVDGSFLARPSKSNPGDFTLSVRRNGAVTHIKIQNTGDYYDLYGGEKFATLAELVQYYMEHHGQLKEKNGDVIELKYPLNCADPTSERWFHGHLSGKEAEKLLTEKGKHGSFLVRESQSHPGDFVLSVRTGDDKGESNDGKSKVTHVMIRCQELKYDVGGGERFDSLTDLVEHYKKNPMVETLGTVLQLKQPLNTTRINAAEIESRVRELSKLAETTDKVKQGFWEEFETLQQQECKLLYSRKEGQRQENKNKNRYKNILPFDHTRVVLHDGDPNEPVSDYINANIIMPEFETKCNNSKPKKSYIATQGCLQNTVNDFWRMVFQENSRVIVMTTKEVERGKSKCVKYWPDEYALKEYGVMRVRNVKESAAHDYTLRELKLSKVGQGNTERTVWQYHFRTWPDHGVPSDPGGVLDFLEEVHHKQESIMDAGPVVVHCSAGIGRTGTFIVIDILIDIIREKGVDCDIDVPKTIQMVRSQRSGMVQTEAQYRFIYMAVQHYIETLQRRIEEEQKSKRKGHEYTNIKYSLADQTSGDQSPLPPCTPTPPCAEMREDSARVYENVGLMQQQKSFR

[2] = 1.5 h, read-out: IC50 (p-ERK, nM)
[3] = 1.5 h, MIA PaCa2 or H358 cells, compound incubated 1.5 hours, read-out: IC50 (p-ERK)
[4] = MIA PaCa2 or H358 cells, compound incubated 1.5 hours, read-out: IC50 (p-ERK)

Row | Compound | IC50 [1, 3] [nM] | IC50 (SHP2 (full length); read-out: IC50 (PTPase aS say)) [nM] | IC50 [1, 2] [nM] | IC50 (SHP2 (full length); IC50 (PTPase aS say, nM)) [nM] | IC50 [1, 4] [nM]
1 | CC1(CN)CCN(c2cnc(Sc3ccc4ncn(Cc5cccc(S(=O)(=O)F)c5)c(=O)c4c3Cl)cn2)CC1 [Example 16, 3-((6-((5-(4-(aminomethyl)-4-methylpiperidin-1-yl)pyrazin-2-yl)thio)-5-chloro-4-oxoquinazolin-3(4H)-yl)methyl)benzenesulfonyl fluoride] | – | – | 45 to 1500 | < 3 | –
2 | Cn1c(N2CCN[C@H](CN)C2)nc(N)c(Sc2cccc(Cl)c2Cl)c1=O [Example 197, (R)-6-amino-2-(3-(aminomethyl)piperazin-1-yl)-5-((2,3-dichlorophenyl)thio)-3-methylpyrimidin-4(3H)-one] | – | 3 to 100 | – | – | 45 to 1500
3 | C[C@@H]1OCC2(CCN(c3cnc(Sc4ccc5ncn(Cc6ccc(N)nc6)c(=O)c5c4Cl)cn3)CC2)[C@@H]1N [Example 48, 6-((5-((3S,4S)-4-amino-3-methyl-2-oxa-8-azaspiro[4.5]decan-8-yl)pyrazin-2-yl)thio)-3-((6-aminopyridin-3-yl)methyl)-5-chloroquinazolin-4(3H)-one] | < 45 | < 3 | – | – | –
4 | COc1ccc(Cn2cnc3ccc(Sc4cnc(N5CCC6(CC5)CO[C@@H](C)[C@H]6N)cn4)c(Cl)c3c2=O)cc1 [Example 41, 6-((5-((3S,4S)-4-amino-3-methyl-2-oxa-8-azaspiro[4.5]decan-8-yl)pyrazin-2-yl)thio)-5-chloro-3-(4-methoxybenzyl)quinazolin-4(3H)-one] | < 45 | < 3 | – | – | –
5 | COCCn1cnc2ccc(Sc3n[nH]c4nc(N5CCC6(CC5)CO[C@@H](C)[C@H]6N)cnc34)c(Cl)c2c1=O [Example 178, 6-((6-((3S,4S)-4-amino-3-methyl-2-oxa-8-azaspiro[4.5]decan-8-yl)-1H-pyrazolo[3,4-b]pyrazin-3-yl)thio)-5-chloro-3-(2-methoxyethyl)quinazolin-4(3H)-one] | – | < 3 | – | – | < 45
6 | C[C@@H]1OCC2(CCN(c3cnc(Sc4ccc5ncn(Cc6ccc(F)cc6)c(=O)c5c4Cl)cn3)CC2)[C@@H]1N [Example 40, 6-((5-((3S,4S)-4-amino-3-methyl-2-oxa-8-azaspiro[4.5]decan-8-yl)pyrazin-2-yl)thio)-5-chloro-3-(4-fluorobenzyl)quinazolin-4(3H)-one] | 45 to 1500 | < 3 | – | – | –
7 | CC1(N)CCN(c2cnc(Sc3ccc4ncn(Cc5cccc([N+](=O)[O-])c5)c(=O)c4c3Cl)cn2)CC1 [Example 14, 6-((5-(4-amino-4-methylpiperidin-1-yl)pyrazin-2-yl)thio)-5-chloro-3-(3-nitrobenzyl)quinazolin-4(3H)-one] | 45 to 1500 | 3 to 100 | – | – | –
8 | C[C@@H]1OCC2(CCN(c3cnc(Sc4ccc5ncn(Cc6cccc(C#N)c6)c(=O)c5c4Cl)cn3)CC2)[C@@H]1N [Example 31, 3-((6-((5-((3S,4S)-4-amino-3-methyl-2-oxa-8-azaspiro[4.5]decan-8-yl)pyrazin-2-yl)thio)-5-chloro-4-oxoquinazolin-3(4H)-yl)methyl)benzonitrile] | < 45 | < 3 | – | – | –
9 | CC1(CN)CCN(c2cnc(Sc3ccc4ncn(Cc5ccc(S(=O)(=O)F)cc5)c(=O)c4c3Cl)cn2)CC1 [Example 17, 4-((6-((5-(4-(aminomethyl)-4-methylpiperidin-1-yl)pyrazin-2-yl)thio)-5-chloro-4-oxoquinazolin-3(4H)-yl)methyl)benzenesulfonyl fluoride] | – | – | 45 to 1500 | 3 to 100 | –
10 | C[C@@H]1OCC2(CCN(c3cnc(Sc4cccc(S(N)(=O)=O)c4Cl)cn3)CC2)[C@@H]1N [Example 9, 3-((5-((3S,4S)-4-amino-3-methyl-2-oxa-8-azaspiro[4.5]decan-8-yl)pyrazin-2-yl)thio)-2-chlorobenzenesulfonamide] | < 45 | < 3 | – | – | –
11 | C[C@@H]1OCC2(CCN(c3cnc(Sc4ccc5ncn(-c6ccccc6)c(=O)c5c4Cl)cn3)CC2)[C@@H]1N [Example 51, 6-((5-((3S,4S)-4-amino-3-methyl-2-oxa-8-azaspiro[4.5]decan-8-yl)pyrazin-2-yl)thio)-5-chloro-3-phenylquinazolin-4(3H)-one] | 45 to 1500 | < 3 | – | – | –

The next lines start with results.

Row | IC50 [1, 3] [nM] | IC50 (SHP2 (full length); read-out: IC50 (PTPase aS say)) [nM] | Compound | IC50 [1, 2] [nM] | IC50 (SHP2 (full length); IC50 (PTPase aS say, nM)) [nM] | IC50 [1, 4] [nM]
12 | < 45 | < 3 | COCCn1cnc2ccc(Sc3cnc(N4CCC5(CC4)Cc4ccc(O)cc4[C@H]5N)cn3)c(Cl)c2c1=O [Example 163, (S)-6-((5-(1-amino-6-hydroxy-1,3-dihydrospiro(indene-2,4′-piperidin]-1′-yl)pyrazin-2-yl)thio)-5-chloro-3-(2-methoxyethyl)quinazolin-4(31-1)-one] | – | – | –
13 | > 1500 | 3 to 100 | COCCn1cnc2ccc(Sc3nc(C(C)=O)c(N4CCC5(CC4)CO[C@@H](C)[C@H]5N)nc3N)c(Cl)c2c1=O [Example 155] | – | – | –
14 | < 45 | < 3 | N[C@@H]1c2scnc2CC12CCN(c1cnc(Sc3ccc4ncn(CC5CCOCC5)c(=O)c4c3Cl)cn1)CC2 [Example 149] | – | – | –
15 | > 1500 | > 100 | Cn1c(N2CCN(CCN)CC2)nc(N)c(Sc2cccc(Cl)c2Cl)c1=O [Example 194, 6-amino-2-(4-(2-aminoethyl)piperazin-1-yl)-5-((2,3-dichlorophenyl)thio)-3-methylpyrimidin-4(3H)-one] | – | – | –
16 | < 45 | < 3 | N[C@@H]1c2cccnc2CC12CCN(c1cnc(Sc3ccc4ncn(CCCO)c(=O)c4c3Cl)cn1)CC2 [Example 109] | – | – | –
17 | 45 to 1500 | < 3 | COCCn1cnc2ccc(Sc3cnc(N4CCC5(CCC[C@H]5N)CC4)cn3)c(Cl)c2c1=O [Example 180, (R)-6-((5-(1-amino-8-azaspiro[4.5]decan-8-yl)pyrazin-2-yl)thio)-5-chloro-3-(2-methoxyethyl)quinazolin-4(3H)-one] | – | – | –
18 | 45 to 1500 | < 3 | COCCn1cnc2ccc(Sc3ncc(N4CCC5(CC4)Cc4scnc4[C@H]5N)nc3N)c(Cl)c2c1=O [Example 167, (S)-6-((3-amino-5-(4-amino-4,6-dihydrospiro[cyclopenta[d]thiazole-5,4′-piperidin]-1′-yl)pyrazin-2-yl)thio)-5-chloro-3-(2-methoxyethyl)quinazolin-4(3H)-one] | – | – | –
19 | < 45 | < 3 | C[C@@H]1OCC2(CCN(c3cnc(Sc4ccc5ncn(Cc6ccccn6)c(=O)c5c4Cl)cn3)CC2)[C@@H]1N [Example 88, 6-((5-((3S,4S)-4-amino-3-methyl-2-oxa-8-azaspiro[4.5]decan-8-yl)pyrazin-2-yl)thio)-5-chloro-3-(pyridin-2-ylmethyl)quinazolin-4(3H)-one] | – | – | –
20 | 45 to 1500 | 3 to 100 | N[C@H]1c2scnc2CC12CCN(c1cnc(Sc3ccc4ncn(CC5CCOCC5)c(=O)c4c3Cl)cn1)CC2 [Example 148, 6-[5-[(6R)-6-aminospiro[4,6-dihydrocyclopenta[d]thiazole-5,4′piperidin]1′-yl]-pyrazin-2-yl]sulfanyl-5-chloro-3-(tetrahydropyran-4-ylmethyl)quinazolin-4-one] | – | – | –
21 | < 45 | < 3 | N[C@@H]1c2cccnc2CC12CCN(c1cnc(Sc3ccc4ncn(Cc5ccoc5)c(=O)c4c3Cl)cn1)CC2 [Example 138] | – | – | –
22 | < 45 | < 3 | N[C@@H]1c2cccnc2CC12CCN(c1cnc(Sc3ccc4ncn(CC5CCOC5)c(=O)c4c3Cl)cn1)CC2 (stereo partly drawn) [Example 107, 6-((5-((S)-5-amino-5,7-dihydrospiro[yclopenta[b]pyridine-6,4′-piperidin]-1′-yl)pyrazin-2-yl]thio)-5-chloro-3-((tetrahydrofuran-3-yl)methyl)quinazolin-4(3H)-one] | – | – | –
23 | < 45 | < 3 | COCCn1cnc2ccc(Sc3ncc(N4CCC5(CC4)CO[C@@H](C)[C@H]5N)nc3N)c(Cl)c2c1=O [Example 143, 6-((3-amino-5-((3S,4S)-4-amino-3-methyl-2-oxa-8-azaspiro[4.5]decan 8-yl)pyrazin-2-yl)thio)-5-chloro-3-(2-methoxyethyl)quinazolin-4(3H)-one] | – | – | –
24 | 45 to 1500 | < 3 | COCCn1cnc2ccc(Sc3cnc(N4CCC5(CC4)Cc4scnc4[C@@H]5N)cn3)c(Cl)c2c1=O [Example 150, 6-[5-[(4R)-4-aminospiro[4,6-dihydrocyclopenta[d]thiazole-5,4′-piperidin]-1′-yl]pyrazin-2-yl]sulfanyl-5-chloro-3-(2-methoxyethyl)quinazolin-4-one] | – | – | –
25 | < 45 | < 3 | CC(O)CCn1cnc2ccc(Sc3cnc(N4CCC5(CC4)Cc4ncccc4[C@H]5N)cn3)c(Cl)c2c1=O (stereo partly drawn) [Example 111, (6-((5-((S)-5-amino-5,7-dihydrospiro[yclopenta[b]pyridine]-6,4′-piperidin]-1′-yl)pyrazin-2-yl]thio)-5-chloro-3-(3-hydroxybutyl)quinazolin-4(3H)-one] | – | – | –

Source: patent publication US12029739B2, “SHP2 inhibitor and use thereof” (KANAPH THERAPEUTICS INC., priority 2021, dated 2024)
